Results on one molecule are retold here after US20250090689A1, “[…] FOR TREATING EPILEPSY AND NEUROPATHIC PAIN” (Trames Bio, Inc., priority 2022, published 2025).

The test addresses T1, CODA71 receptor (Homo sapiens, UniProt P36544, F159M/H163T/I152M/R155K/V154L/W156N/Y151P).
T1 construct: expressed in transfected cells; host or cells: mouse brain neurons transduced in vivo with AAV carrying expression cassettes #11, #13, #33, #34, #35, #36 (KA focal epilepsy model)
Put plainly: kainic acid (KA) focal epilepsy mouse model, seizure frequency after repeated dosing of TC-5619. The class given is in vivo. The source says:
Six expression cassettes—#11, #13, #33, #34, #35, and #36 in Table 2—were each packaged into the AAV vector and tested in a kainic acid (KA) focal epilepsy mouse model. The animals were then monitored for seizure frequency following repeated dosing of TC-5619, an activator of the CODA71 receptor transgene encoded by these expression cassettes.

T1 sequence (P36544 with tags, fused parts or gaps Y151P/I152M/V154L/R155K/W156N/F159M/H163T): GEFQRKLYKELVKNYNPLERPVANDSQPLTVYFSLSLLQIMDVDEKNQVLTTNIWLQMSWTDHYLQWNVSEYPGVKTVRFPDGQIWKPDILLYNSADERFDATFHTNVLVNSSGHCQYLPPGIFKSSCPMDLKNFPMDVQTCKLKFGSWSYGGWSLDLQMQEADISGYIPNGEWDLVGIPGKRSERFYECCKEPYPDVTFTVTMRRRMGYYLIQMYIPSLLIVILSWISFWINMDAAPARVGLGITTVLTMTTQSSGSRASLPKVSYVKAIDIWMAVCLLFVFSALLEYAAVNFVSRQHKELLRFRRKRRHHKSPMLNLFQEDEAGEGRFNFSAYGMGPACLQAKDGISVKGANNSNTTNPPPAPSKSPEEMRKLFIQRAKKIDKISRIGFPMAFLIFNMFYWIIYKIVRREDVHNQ

For `O=C(N[C@@H]1C2CCN(CC2)[C@H]1Cc1cccnc1)c1cc2ccccc2o1` [TC-5619], the seizure burden result (higher dose ranges of TC-5619, KA mice with AAV-delivered CODA71 cassettes) is given as “significantly reduced seizure burden”. Besides, the seizure frequency result (repeated dosing of TC-5619 in KA mice injected with AAV carrying cassettes #11, #13, #33, #34, #35 or #36, FIG. 7) was “dose-dependent reduction of seizure frequency”. Moreover, the “residual effect after washout (return to baseline)” value (repeated single doses of TC-5619 followed by washout) is reported as “no residual effect”.
